In patent US20260008746A1, “CATIONIC LIPID COMPOUND WITH HIGH EFFICIENCY, LOW TOXICITY AND STABLE EXPRESSION, AND COMPOSITION COMPRISNG SAME” (HANGZHOU TIANLONG PHARMACEUTICAL CO., LTD, priority 2023, published 2026):

What was measured:
[1] = tested on: 293T cells; assay: Fluorescent detection of Fluc-mRNA (cell transfection efficiency of LNP formulations); type: cell-based; settings: for Relative light unit (RLU): LNP formulation containing 0.3 μg Fluc-mRNA, 96-well plate, 24 hours; for Multiples (YK-101): RLU of YK-101 / RLU of named substance; for Multiples (YK-107): RLU of YK-107 / RLU of named substance; for Multiples (YK-108): RLU of YK-108 / RLU of named substance; for Ratio relative to SM-102: RLU of named substance / RLU of SM-102
Method: (§1) Cell recovery and passage: 293T cells were recovered, cultured in a culture dish, and passaged to the required number of cells.
(§2) Seeding plate: The cells in the culture dish were digested and counted. Cells were spread in a 96-well plate at 10,000 cells per well and in a 12-well plate at 150,000 cells per well. Cells were cultured overnight until the cells adhered to the wall.
Cell recovery and passage: the method was the same as in Example 3.
Seeding plate: the method was the same as in Example 3.
An LNP formulation containing 0.3 μg of Fluc-mRNA (the carrier components of the LNP formulation were cationic lipid, neutral lipid, structured lipid and polymer-conjugated lipid with a molar ratio of 49:10:39.5:1.5, wherein the cationic lipid was listed in Table 1) was added to the cell culture medium of a 96-well plate, and further incubated for 24 hours. The corresponding reagent was added according to the instructions of the Gaussia Luciferase Assay Kit, and the fluorescence expression intensity of each well was detected by an IVIS fluorescence detection system. This test verified the transfection efficiencies of LNP formulations in cells, see Tables 3-6 for specific test results.

[2] = tested on: 293T cells; assay: Cell survival rate determination (CCK-8); type: cell-based; settings: for Cell survival rate (%): LNP formulation containing 1.5 μg Fluc-mRNA, 24 hours, CCK-8, absorbance at 450 nm
Method: as §1, §2
An LNP formulation containing 1.5 μg of Fluc-mRNA (the cater component of the LNP formulation were cationic lipid, neutral lipid, structured lipid and polymer-conjugated lipid with a molar ratio of 49: 10: 39.5: 1.5, wherein the cationic lipid was listed in Table 1) and the formulation of Lipofectamine 3000 were added to the cell culture medium of a 96-well plate, and further cultivated for 24 hours. 10 μL of CCK-8 solution was then added to each well, and the culture plate was incubated in an incubator for 1 hour. The absorbance at 450 nm was measured by a microplate reader.

[3] = tested on: BALB/C mice; assay: In vivo imaging of Fluc-mRNA expression in mice delivered by LNP formulations; settings: for average radiation intensity, 6 h / average radiation intensity, 24 h / average radiation intensity, 48 h / average radiation intensity, 7 d: LNP containing 10 pg Fluc-mRNA, intramuscular, female BALB/C mice
Method: The LNP formulation containing […] Fluc-mRNA was injected intramuscularly into female BALB/C mice aged 4-6 weeks old and weighed 17-19 g, and the mice were intraperitoneally injected with fluorescent imaging substrate at specific time points after administration (6h, 24 h, 48h and 7d), where the mice were allowed to move freely for 5 minutes, and then the average radiation intensity (corresponding to fluorescence expression intensity) of the protein expression of the mRNA carried by the LNP in the mice was detected by the IVIS Spectrum small animal in vivo imaging device. The test results are shown in Tables 11 to 14 and FIGS. 12 to 14.

SMILES | Relative light unit (RLU) [1] | Multiples (YK-101) [1] | Multiples (YK-107) [1] | Multiples (YK-108) [1] | Ratio relative to SM-102 [1] | Cell survival rate (%) [2] | average radiation intensity, 6 h ([3]; 6 h) | average radiation intensity, 24 h ([3]; 24 h) | average radiation intensity, 48 h ([3]; 48 h) | average radiation intensity, 7 d ([3]; 7 d) | further results
CCCCCCCCCCOC(=O)CCCN(CCCO)CCCCCC(=O)OCC(CCCCCCCC)CCCCCCCC [YK-107, 2-octyldecyl 6-(4-(decyloxy)-4-oxobutyl)((3-hydroxypropyl)amino)hexanoate] | 22361210 RLU | 0.91 | 1.00 | 1.10 | 14.58 | 90.45% | 1601250 | 1302640 | 226170 | 13288 | –
CCCCCCCCCCOC(=O)CCCN(CCO)CCCCCC(=O)OCCC(CCCCCC)CCCCCC [YK-101, 3-hexylnonyl-6-(4-(decyloxy)-4-oxobutyl)((2-hydroxyethyl)amino)hexanoate] | 20335193 RLU | 1.00 | 1.10 | 1.21 | 13.25 | 90.12% | 1496240 | 1056210 | 185905 | 12165 | –
CCCCCCCCCCOC(=O)CCCN(CCCCCC(=O)OCCC(CCCCCC)CCCCCC)C1CCCC1O (stereo not shown) [YK-120, 3-hexylnonyl 6-(4-(decyloxy)-4-oxobutyl)((2-hydroxycyclopentyl)amino)hexanoate] | 1403572 RLU | 14.49 | 15.93 | 17.57 | 0.91 | 73.43% | 559000 | 94779 | 20832 | 5052 | fluorescence absorption value, times that of HHMA ([1]; RLU of named substance / RLU of HHMA): 0.69 times; fluorescence absorption value, times that of Lipofectamine 3000 ([1]; RLU of named substance / RLU of Lipofectamine 3000): 1.31 times; Fluc-mRNA expression signal intensity, times that of compound 21 ([1]; RLU of named substance / RLU of compound 21): 1.01 times; fluorescence absorption value, times that of compound 23 ([1]; RLU of named substance / RLU of compound 23): 1.09 times; cell survival rate lower than that of YK-101 ([2]; cell survival rate of YK-101 minus that of named substance): 16.69%; cell survival rate lower than that of YK-107 ([2]; cell survival rate of YK-107 minus that of named substance): 17.02%; cell survival rate lower than that of YK-108 ([2]; cell survival rate of YK-108 minus that of named substance): 16.43%; average radiation intensity of YK-101, times that of named substance ([3]; 6 h): 2.7 times; average radiation intensity of YK-107, times that of named substance ([3]; 6 h): 2.9 times; average radiation intensity of YK-108, times that of named substance ([3]; 6 h): 3.6 times; average radiation intensity of YK-101, times that of named substance ([3]; 24 h): 11.1 times; average radiation intensity of YK-107, times that of named substance ([3]; 24 h): 13.7 times; average radiation intensity of YK-108, times that of named substance ([3]; 24 h): 14.8 times; average radiation intensity of YK-101, times that of named substance ([3]; 48 h): 8.9 times; average radiation intensity of YK-107, times that of named substance ([3]; 48 h): 10.9 times; average radiation intensity of YK-108, times that of named substance ([3]; 48 h): 11.1 times; average radiation intensity of YK-101, times that of named substance ([3]; 7 d): 2.4 times; average radiation intensity of YK-107, times that of named substance ([3]; 7 d): 2.6 times; average radiation intensity of YK-108, times that of named substance ([3]; 7 d): 2.8 times
